Measured values as given in US10087165B2, “Fluoroquinolones and use thereof to treat bacterial infections” (UNIVERSITÉ PIERRE ET MARIE CURIE—PARIS 6 (UPMC), priority 2014, dated 2018).
In brackets after ≈: the same amount, converted by molar mass. Read-outs that look alike come from different tables or passages of the source.

Tests used:
[1] = tested on: M. tuberculosis H37Rv GyrA D94G; format: cell-based
[2] = tested on: M. tuberculosis H37Rv GyrA A90V; format: cell-based
[3] = tested on: M. tuberculosis H37Rv GyrB D500N; format: cell-based
[4] = tested on: multidrug-resistant M. tuberculosis clinical strain GV1503014223; experiment: microbe, parasite or virus in culture; format: cell-based; conditions: Mycobacterium tuberculosis; MDR clinical strain; Table 3
[5] = tested on: multidrug-resistant M. tuberculosis clinical strain KC1503006247; experiment: microbe, parasite or virus in culture; format: cell-based; conditions: Mycobacterium tuberculosis; MDR clinical strain; Table 3
[6] = tested on: multidrug-resistant M. tuberculosis clinical strain XCC1503082245; experiment: microbe, parasite or virus in culture; format: cell-based; conditions: Mycobacterium tuberculosis; MDR clinical strain; Table 3
[7] = tested on: M. tuberculosis H37Rv GyrA D94G; conditions: Table 2, published previously (Poissy et al. 2010); cited from earlier work
[8] = tested on: M. tuberculosis H37Rv GyrA A90V; conditions: Table 2, published previously (Poissy et al. 2010); cited from earlier work
[9] = tested on: quinolone-resistant M. tuberculosis strains (GyrB D500N, GyrA D94G and GyrA A90V strains); format: cell-based

Row | SMILES | MIC (M. tuberculosis) D94G [1] [µM] | MIC (M. tuberculosis) A90V [2] [µM] | MIC M. tuberculosis H37Rv GyrA D94G [1] [µM] | MIC M. tuberculosis H37Rv GyrA A90V [2] [µM] | MIC M. tuberculosis H37Rv GyrB D500N [3] [µM] | MIC [4] [µM] | MIC [5] [µM] | MIC [6] [µM] | MIC (M. tuberculosis) D94G [7] [µM] | MIC (M. tuberculosis) A90V [8] [µM] | antibacterial activity against quinolone-resistant M. tuberculosis strains (in words) [9]
1 | O=C(O)c1cn(C2CC2)c2cc(N3CCNCC3)c(F)cc2c1=O [Ciprofloxacin, ciprofloxacin, reference compound] | ≥24 | ≥24 |  |  |  |  |  |  |  |  | 
2 | CCCCCCCN1CCN(c2c(F)cc3c(=O)c(C(=O)O)cn(C4CC4)c3c2OC)CC1 [Compound 15, 1-cyclopropyl-6-fluoro-7-(4-heptylpiperazin-1-yl)-8-methoxy-4-oxo-1,4-dihydroquinoline-3-carboxylic acid] |  |  | 0.5 (≈ 0.23 µg/mL) | 2.2 (≈ 1.01 µg/mL) | 2.2 (≈ 1.01 µg/mL) | 1 (≈ 0.46 µg/mL) | 1 (≈ 0.46 µg/mL) | 1 (≈ 0.46 µg/mL) |  |  | 
3 | CCCCCCCCCN1CCN(c2c(F)cc3c(=O)c(C(=O)O)cn(C4CC4)c3c2OC)CC1 [Compound 17, 1-cyclopropyl-6-fluoro-8-methoxy-7-(4-nonylpiperazin-1-yl)-4-oxo-1,4-dihydroquinoline-3-carboxylic acid] |  |  | 2 (≈ 0.975 µg/mL) | 2 (≈ 0.975 µg/mL) | 0.5 (≈ 0.244 µg/mL) | < 0.12 | < 0.12 | 1 (≈ 0.488 µg/mL) |  |  | 
4 | CCCCCCCCCCCN1CCN(c2c(F)cc3c(=O)c(C(=O)O)cn(C4CC4)c3c2OC)CC1 [Compound 19, 1-cyclopropyl-6-fluoro-8-methoxy-4-oxo-7-(4-undecylpiperazin-1-yl)-1,4-dihydroquinoline-3-carboxylic acid] |  |  | 10 (≈ 5.16 µg/mL) | 10 (≈ 5.16 µg/mL) | 2 (≈ 1.03 µg/mL) | 0.5 (≈ 0.258 µg/mL) | 0.12 (≈ 0.0619 µg/mL) | 0.5 (≈ 0.258 µg/mL) |  |  | 
5 | CCCCCCCCCCCCN1CCN(c2c(F)cc3c(=O)c(C(=O)O)cn(C4CC4)c3c2OC)CC1 [Compound 20, 1-cyclopropyl-7-(4-dodecylpiperazin-1-yl)-6-fluoro-8-methoxy-4-oxo-1,4-dihydroquinoline-3-carboxylic acid] |  |  | 1.9 (≈ 1.01 µg/mL) | 1.9 (≈ 1.01 µg/mL) | 0.23 (≈ 0.122 µg/mL) | 0.47 (≈ 0.249 µg/mL) | 0.47 (≈ 0.249 µg/mL) | 0.47 (≈ 0.249 µg/mL) |  |  | 
6 | COc1c(N2CCNC(C)C2)c(F)cc2c(=O)c(C(=O)O)cn(C3CC3)c12 (stereo not drawn) [Gatifloxacin, gatifloxacin] |  |  |  |  |  |  |  |  | 2.66 (≈ 0.999 µg/mL) | 5.33 (≈ 2 µg/mL) | 
7 | CCCCCCCCCCN1CCN(c2cc3c(cc2F)c(=O)c(C(=O)O)cn3C2CC2)CC1 [Quin 9, 1-cyclopropyl-7-(4-decylpiperazin-1-yl)-6-fluoro-4-oxo-1,4-dihydroquinoline-3-carboxylic acid] | ≥4.8 | ≥4.8 |  |  |  |  |  |  |  |  | 
8 | CCCCCCCCN1CCN(c2cc3c(cc2F)c(=O)c(C(=O)O)cn3C2CC2)CC1 [Quin 16, 1-cyclopropyl-6-fluoro-7-(4-octylpiperazin-1-yl)-4-oxo-1,4-dihydroquinoline-3-carboxylic acid] | 13.5 (≈ 5.99 µg/mL) | 6.7 (≈ 2.97 µg/mL) |  |  |  |  |  |  |  |  | 
9 | CCCCCN1CCN(c2c(F)cc3c(=O)c(C(=O)O)cn(C4CC4)c3c2OC)CC1 [Quin 17, 1-cyclopropyl-6-fluoro-8-methoxy-4-oxo-7-(4-pentylpiperazin-1-yl)-1,4-dihydroquinoline-3-carboxylic acid] | >18.5 | 18.5 (≈ 7.98 µg/mL) |  |  |  |  |  |  |  |  | 
10 | CCCCCCCCN1CCN(c2c(F)cc3c(=O)c(C(=O)O)cn(C4CC4)c3c2OC)CC1 [Quin 18, 1-cyclopropyl-6-fluoro-8-methoxy-7-(4-octylpiperazin-1-yl)-4-oxo-1,4-dihydroquinoline-3-carboxylic acid] | 2 (≈ 0.947 µg/mL) | 0.5 (≈ 0.237 µg/mL) | 2 (≈ 0.947 µg/mL) | 2 (≈ 0.947 µg/mL) | <0.12 | < 0.12 | < 0.12 | 0.12 (≈ 0.0568 µg/mL) |  |  | high antibacterial activity
11 | CCCCCCCCCCN1CCN(c2c(F)cc3c(=O)c(C(=O)O)cn(C4CC4)c3c2OC)CC1 [Quin 19, 1-cyclopropyl-7-(4-decylpiperazin-1-yl)-6-fluoro-8-methoxy-4-oxo-1,4-dihydroquinoline-3-carboxylic acid] | 1 (≈ 0.502 µg/mL) | 0.5 (≈ 0.251 µg/mL) | 2 (≈ 1 µg/mL) | 1 (≈ 0.502 µg/mL) | 0.5 (≈ 0.251 µg/mL) | < 0.12 | < 0.12 | 0.5 (≈ 0.251 µg/mL) |  |  | high antibacterial activity
12 | CCCCCCCCCCCCCCCCN1CCN(c2c(F)cc3c(=O)c(C(=O)O)cn(C4CC4)c3c2OC)CC1 [Quin 20, 1-cyclopropyl-6-fluoro-7-(4-hexadecylpiperazin-1-yl)-8-methoxy-4-oxo-1,4-dihydroquinoline-3-carboxylic acid] | >13.7 | 13.7 (≈ 8.03 µg/mL) |  |  |  |  |  |  |  |  | 
